Source: ChEMBL document CHEMBL1148877, “Evaluation of 4'-substituted bicyclic pyridones as non-steroidal inhibitors of steroid 5alpha-reductase” (Bioorg Med Chem Lett, 2007)

What was measured:
[1] = biological target: T1, 3-oxo-5-alpha-steroid 4-dehydrogenase 1 (Homo sapiens) (UniProt P18405); test: Inhibition of steroid 5-alpha reductase type 1 expressed in HEK 293 cells at 10 uM; format: cell-based; settings: HEK293
T1 sequence (whole entry): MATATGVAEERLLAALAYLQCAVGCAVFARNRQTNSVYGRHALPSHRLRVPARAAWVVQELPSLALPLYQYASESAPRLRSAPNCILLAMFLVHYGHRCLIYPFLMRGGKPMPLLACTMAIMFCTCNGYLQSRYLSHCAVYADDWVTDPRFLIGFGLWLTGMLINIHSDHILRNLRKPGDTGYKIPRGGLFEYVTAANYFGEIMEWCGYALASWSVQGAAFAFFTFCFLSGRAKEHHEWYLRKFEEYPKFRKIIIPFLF

[2] = biological target: T2, 3-oxo-5-alpha-steroid 4-dehydrogenase 2 (Homo sapiens) (UniProt P31213); test: Inhibition of steroid 5-alpha reductase type 2 expressed in HEK 293 cells at 10 uM; format: cell-based; settings: HEK293
T2 sequence (whole entry): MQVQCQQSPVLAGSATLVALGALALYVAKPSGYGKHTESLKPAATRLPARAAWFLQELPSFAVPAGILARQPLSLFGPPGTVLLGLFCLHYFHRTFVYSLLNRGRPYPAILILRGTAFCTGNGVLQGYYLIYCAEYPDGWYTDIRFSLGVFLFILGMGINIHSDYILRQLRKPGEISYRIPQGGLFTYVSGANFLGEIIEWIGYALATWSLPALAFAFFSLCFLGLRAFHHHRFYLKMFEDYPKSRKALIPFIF

[3] = biological target: T3, 3-oxo-5-alpha-steroid 4-dehydrogenase 1 (Homo sapiens, UniProt P18405); test: Inhibition of steroid 5-alpha reductase type 1 expressed in HEK 293 cells; format: cell-based, HEK293
T3 sequence (P18405 whole entry): T1 sequence (whole entry)

[4] = biological target: T4, 3-oxo-5-alpha-steroid 4-dehydrogenase 2 (Homo sapiens, UniProt P31213); test: Inhibition of steroid 5-alpha reductase type 2 expressed in HEK 293 cells; format: cell-based, HEK293
T4 sequence (P31213 whole entry): T2 sequence (whole entry)

In the case of `CC(C)NC(=O)COc1ccc(-c2ccc(=O)n(C)c2)cc1`, the inhibition [1] is reported as 8%.
`C=CCNC(=O)COc1ccc(N2C=CC(=O)CC2C)cc1` (stereo unspecified) showed an inhibition [1] of 8% and an inhibition [2] of 12%.
With `CC(C)(C)NC(=O)[C@H]1CC[C@H]2[C@@H]3CC[C@H]4NC(=O)C=C[C@]4(C)[C@H]3CC[C@]12C` [FINASTERIDE] the IC50 [3] was 453 nM and the IC50 [4] was 25 nM.
In the case of `CC(=O)SCCCCCCCCCCCCCCCC(=O)NCCOC(=O)CC/C=C/CNC(=O)COc1ccc(-c2ccc(=O)n(C)c2)cc1`, the inhibition [1] is reported as 43%.
`CC(C)N(C(=O)COc1ccc(C2CCC(=O)N(C)C2)cc1)C(C)C` (stereo unspecified) was tested, and the inhibition [1] was 6%.
`Cn1cc(-c2ccc(C(=O)Cc3ccccc3)cc2)ccc1=O` was tested, and the inhibition [1] was 61%.
Compound `CC1CC(=O)C=CN1c1ccc(OCC(=O)N(C(C)C)C(C)C)cc1` (stereo unspecified) has an inhibition [1] of 3%.
`CC(=O)SCCCCCCCCCCCCCCCC(=O)NCCOCCOC(=O)CC/C=C/CNC(=O)COc1ccc(-c2ccc(=O)n(C)c2)cc1` was tested, and the inhibition [1] was 33%.
Compound `C=CCNC(=O)COc1ccc(-c2ccc(=O)n(C)c2)cc1` has an inhibition [1] of 6%.
